We go through one compound from US8795734B2, “Hydrophobic nanotubes and nanoparticles as transporters for the delivery of drugs into cells” (The Board of Trustees of the Leland Stanford Junior …, priority 2005, dated 2014).

For one assay, the system named is myc. The assay is described as follows: Western blot of myc after c-myc siRNA delivery in 4188 cells. Type of assay: cell-based. The procedure:
Typical incubations were carried out by incubating 4188 cells with the NT conjugates for periods ranging from 12-14 h at 37° C. and 5% CO2 atmosphere. In addition to our positive incubation with our disulfide containing conjugate, SWNT-SS-siRNAmyc (typical [NT} ≈20 nM and [siRNA] ≈500 nM in incubation), control incubations were also carried out with DOX at a concentration 2 ng/mL, commercially available transfecting agent lipofectamine-myc complex and finally with a mixture of SWNT suspension and myc siRNA solution.
The proliferation of the cells was also examined by the use of a colorimetric MTS-based assay. […] In order to verify that the decrease in cell viability and proliferation was in fact a result of the knockdown of myc in the lymphoma cells, western blots were performed on the respective cellysates. The myc band was absent for the SWNT-SS-siRNAmyc and DOX treated cell.
For orientation: Immunoblotting shows a protein as a band on a membrane.

In the next assay the test system is 4188 cells. Description: Cell density, cell death and proliferation of lymphoma cells after c-myc siRNA delivery. It counts as cell-based, mice. The settings on record: approximately 24 h treatment, light microscopy. The procedure: These conjugates were used to treat T-cell lymphoma cells, 4188 cells, which were derived from mice overexpressing human myc. Control experiments were also performed where the 4188 cells were exposed to a mixture of SWNT and siRNAmyc (no covalent linkage), to lipofectamine-siRNAmyc complex or to the antibiotic doxicycline (DOX). The 4188 cells used in this experiment had been previously engineered to be tet-regulatable such that the myc gene can be turned off by treatment with DOX.
The 4188 cells are non-adherent cells, typically cultured in RPMI 1640 medium supplemented with fetal bovine serum, penicillin/streptomycin and betamercaptoethanol. The cells were engineered to have tet-regulatable MYC, which can be regulated by the antibiotic doxicycline (DOX). 4188 cells are further described at Jain, M. et al. Sustained loss of a neoplastic phenotype by brief inactivation of MYC. Science 297, 102-104 (2002). […]
The cell proliferation was determined by using the CellTiterA96 assay (Promega). […]
Cell death was monitored in the cells by cell cytometry. […]

As to `C[C@H]1c2cccc(O)c2C(O)=C2C(=O)[C@]3(O)C(O)=C(C(N)=O)C(=O)[C@@H](N(C)C)[C@@H]3[C@@H](O)[C@@H]21` [DOX, doxicycline], the “myc band in western blot” value in the assay with myc is on record as “absent”. Further, in the assay on 4188 cells, the cell density result is “some reduction in the cell density”.
